Test results taken from ChEMBL document CHEMBL4177608, “Design and synthesis of benzimidazole-based Rho kinase inhibitors for the treatment of glaucoma” (Bioorg Med Chem, 2017).
In brackets after ≈: the same amount, converted by molar mass.

Key:
[1] = Antioxidant activity assessed as DPPH free radical scavenging activity at 200 ug/ml after 30 mins by spectrophotometric analysis; assay type: functional
[2] = Antioxidant activity assessed as DPPH free radical scavenging activity at 50 ug/ml after 30 mins by spectrophotometric analysis; assay type: functional
[3] = Antioxidant activity assessed as DPPH free radical scavenging activity at 150 ug/ml after 30 mins by spectrophotometric analysis; assay type: functional
Rattus norvegicus [4] = species: Rattus norvegicus; assay: Reduction in intraocular pressure in Wistar rat model of dexamethasone-induced elevated IOP assessed as change in intraocular pressure in contralateral eye at 1 % w/v after 3 hrs by tonometry (reference value: 0%); assay type: ADME, organism-based; design: scale not given: the % may be the effect or the level left; details: in vivo
[5] = 1-Octanol/water partition coefficient, log P of compound at 2 mg after 24 hrs by spectrophotometry based shake flask method; assay type: physicochemical
Rattus norvegicus [6] = species: Rattus norvegicus; assay: Reduction in intraocular pressure in Wistar rat model of dexamethasone-induced elevated IOP assessed as change in intraocular pressure in contralateral eye at 1 % w/v after 4 hrs by tonometry (reference value: 0%); assay type: ADME, organism-based; design: scale not given: the % may be the effect or the level left; details: in vivo
Rattus norvegicus [7] = species: Rattus norvegicus; assay: Reduction in intraocular pressure in Wistar rat model of dexamethasone-induced elevated IOP assessed as peak effect time for reduction in intraocular pressure at 1 % w/v by tonometry; assay type: functional, organism-based
Rattus norvegicus [8] = species: Rattus norvegicus; assay: Reduction in intraocular pressure in Wistar rat model of dexamethasone-induced elevated IOP assessed as change in intraocular pressure at 1 % w/v after 5 hrs by tonometry (reference value: 0%); assay type: functional; design: scale not given: the % may be the effect or the level left
[9] = Antioxidant activity assessed as DPPH free radical scavenging activity at 5 ug/ml after 30 mins by spectrophotometric analysis; assay type: functional
Rattus norvegicus [10] = species: Rattus norvegicus; assay: Reduction in intraocular pressure in Wistar rat model of dexamethasone-induced elevated IOP assessed as change in intraocular pressure in contralateral eye at 1 % w/v after 1.5 hrs by tonometry (reference value: 0%); assay type: ADME, organism-based; design: scale not given: the % may be the effect or the level left; details: in vivo
Rattus norvegicus [11] = species: Rattus norvegicus; assay: Reduction in intraocular pressure in Wistar rat model of dexamethasone-induced elevated IOP assessed as change in intraocular pressure in contralateral eye at 1 % w/v after 1 hr by tonometry (reference value: 0%); assay type: ADME, organism-based; design: scale not given: the % may be the effect or the level left; details: in vivo, topical_or_ocular
Rattus norvegicus [12] = species: Rattus norvegicus; assay: Reduction in intraocular pressure in Wistar rat model of dexamethasone-induced elevated IOP assessed as change in intraocular pressure in contralateral eye at 1 % w/v after 6 hrs by tonometry (reference value: 0%); assay type: ADME, organism-based; design: scale not given: the % may be the effect or the level left; details: in vivo
Rattus norvegicus [13] = species: Rattus norvegicus; assay: Reduction in intraocular pressure in Wistar rat model of dexamethasone-induced elevated IOP assessed as onset time for reduction in intraocular pressure at 1 % w/v by tonometry; assay type: functional
Rattus norvegicus [14] = species: Rattus norvegicus; assay: Reduction in intraocular pressure in Wistar rat model of dexamethasone-induced elevated IOP assessed as change in intraocular pressure at 1 % w/v after 2 hrs by tonometry (reference value: 0%); assay type: functional; design: scale not given: the % may be the effect or the level left
Rattus norvegicus [15] = species: Rattus norvegicus; assay: Reduction in intraocular pressure in Wistar rat model of dexamethasone-induced elevated IOP assessed as change in intraocular pressure in contralateral eye at 1 % w/v after 5 hrs by tonometry (reference value: 0%); assay type: ADME, organism-based; design: scale not given: the % may be the effect or the level left; details: in vivo
Rattus norvegicus [16] = species: Rattus norvegicus; assay: Reduction in intraocular pressure in Wistar rat model of dexamethasone-induced elevated IOP assessed as change in intraocular pressure in contralateral eye at 1 % w/v after 2 hrs by tonometry (reference value: 0%); assay type: ADME, organism-based; design: scale not given: the % may be the effect or the level left; details: in vivo
Rattus norvegicus [17] = species: Rattus norvegicus; assay: Reduction in intraocular pressure in Wistar rat model of dexamethasone-induced elevated IOP assessed as change in intraocular pressure at 1 % w/v after 1 hr by tonometry (reference value: 0%); assay type: functional; design: scale not given: the % may be the effect or the level left
[18] = Antioxidant activity assessed as DPPH free radical scavenging activity after 30 mins by spectrophotometric analysis; assay type: functional
Rattus norvegicus [19] = species: Rattus norvegicus; assay: Reduction in intraocular pressure in Wistar rat model of dexamethasone-induced elevated IOP assessed as change in intraocular pressure in contralateral eye at 1 % w/v after 2.5 hrs by tonometry (reference value: 0%); assay type: ADME, organism-based; design: scale not given: the % may be the effect or the level left; details: in vivo
[20] = Antioxidant activity assessed as DPPH free radical scavenging activity at 25 ug/ml after 30 mins by spectrophotometric analysis; assay type: functional
Rattus norvegicus [21] = species: Rattus norvegicus; assay: Reduction in intraocular pressure in Wistar rat model of dexamethasone-induced elevated IOP assessed as change in intraocular pressure at 1 % w/v after 6 hrs by tonometry (reference value: 0%); assay type: functional; design: scale not given: the % may be the effect or the level left
Rattus norvegicus [22] = species: Rattus norvegicus; assay: Reduction in intraocular pressure in Wistar rat model of dexamethasone-induced elevated IOP assessed as change in intraocular pressure at 1 % w/v after 0.5 hrs by tonometry (reference value: 0%); assay type: functional; design: scale not given: the % may be the effect or the level left
Rattus norvegicus [23] = species: Rattus norvegicus; assay: Reduction in intraocular pressure in Wistar rat model of dexamethasone-induced elevated IOP assessed as change in intraocular pressure at 1 % w/v after 3 hrs by tonometry (reference value: 0%); assay type: functional; design: scale not given: the % may be the effect or the level left
Rattus norvegicus [24] = species: Rattus norvegicus; assay: Reduction in intraocular pressure in Wistar rat model of dexamethasone-induced elevated IOP assessed as change in intraocular pressure at 1 % w/v after 2.5 hrs by tonometry (reference value: 0%); assay type: functional; design: scale not given: the % may be the effect or the level left
Rattus norvegicus [25] = species: Rattus norvegicus; assay: Reduction in intraocular pressure in Wistar rat model of dexamethasone-induced elevated IOP assessed as change in intraocular pressure in contralateral eye at 1 % w/v after 0.5 hrs by tonometry (reference value: 0%); assay type: ADME, organism-based; design: scale not given: the % may be the effect or the level left; details: in vivo, topical_or_ocular
Rattus norvegicus [26] = species: Rattus norvegicus; assay: Reduction in intraocular pressure in Wistar rat model of dexamethasone-induced elevated IOP assessed as change in intraocular pressure at 1 % w/v after 1.5 hrs by tonometry (reference value: 0%); assay type: functional; design: scale not given: the % may be the effect or the level left
[27] = Antioxidant activity assessed as DPPH free radical scavenging activity at 100 ug/ml after 30 mins by spectrophotometric analysis; assay type: functional
Rattus norvegicus [28] = species: Rattus norvegicus; assay: Reduction in intraocular pressure in Wistar rat model of dexamethasone-induced elevated IOP assessed as change in intraocular pressure at 1 % w/v after 4 hrs by tonometry (reference value: 0%); assay type: functional; design: scale not given: the % may be the effect or the level left
Rattus norvegicus [29] = species: Rattus norvegicus; assay: Reduction in intraocular pressure in Wistar rat model of dexamethasone-induced elevated IOP assessed as reduction in intraocular pressure at peak effect time at 1 % w/v by tonometry; assay type: functional; design: scale not given: the % may be the effect or the level left

Row | Activity (Rattus norvegicus [4]) | logP at 24 h [5] | Activity (Rattus norvegicus [6]) | Activity (Rattus norvegicus [10]) | Activity (Rattus norvegicus [11]) | Activity (Rattus norvegicus [12]) | Activity (Rattus norvegicus [15]) | Activity (Rattus norvegicus [16]) | IC50 [18] | SMILES | Activity [1] | Activity [2] | Activity [3] | Tmax (Rattus norvegicus [7]) | Activity (Rattus norvegicus [8]) | Activity [9] | Time (Rattus norvegicus [13]) | Activity (Rattus norvegicus [14]) | Activity (Rattus norvegicus [17]) | Activity [20] | Activity [27] | further results
1 | 4.2% | 1.94 | 1.6% | 3.5% | 1.2% | 0% | 0% | 4.87% | 95.49 µg/mL (≈ 251 µM) | O=C(CN1CCN(c2ccc([N+](=O)[O-])cc2)CC1)Nc1nc2ccccc2[nH]1 | 76.7% | 44.8% | 64.9% | 2.5 h | 4.75% | 16.1% | 0.5 h | 11.88% | 5.85% | 33.9% | 51.7% | Activity (Rattus norvegicus [19]): 5.23%; Activity (Rattus norvegicus [21]): 1.2%; Activity (Rattus norvegicus [22]): 3.33%; Activity (Rattus norvegicus [23]): 10.52%; Activity (Rattus norvegicus [24]): 16%; Activity (Rattus norvegicus [25]): 0.83%; Activity (Rattus norvegicus [26]): 7.68%; Activity (Rattus norvegicus [28]): 7.82%; Activity (Rattus norvegicus [29]): 51.56%
2 | 1.67% | 1.89 | 0.83% | 2.9% | 2.07% | 0% | 0.43% | 3.63% | 148.39 µg/mL (≈ 408 µM) | O=C(CN1CCN(CCc2ccccc2)CC1)Nc1nc2ccccc2[nH]1 | 62.9% | 22.3% | 51.8% | 2 h | 0.83% | 8.11% | 0.5 h | 10.17% | 5.52% | 13.5% | 38.1% | Activity (Rattus norvegicus [19]): 2.43%; Activity (Rattus norvegicus [21]): 0.4%; Activity (Rattus norvegicus [22]): 2.53%; Activity (Rattus norvegicus [23]): 7.1%; Activity (Rattus norvegicus [24]): 11.95%; Activity (Rattus norvegicus [25]): 1.23%; Activity (Rattus norvegicus [26]): 8.97%; Activity (Rattus norvegicus [28]): 3.76%; Activity (Rattus norvegicus [29]): 37.15%
3 |  |  |  |  |  |  |  |  | 15.74 µg/mL (≈ 89.4 µM) | O=C1O[C@H]([C@@H](O)CO)C(O)=C1O [ASCORBIC ACID] | 97.9% | 62.5% | 92.9% |  |  | 39.5% |  |  |  | 54.9% | 79.4% | 
4 | 3.6% | 1.29 | 1.55% | 4.12% | 3.25% | 0% | 0% | 5% | 165.52 µg/mL (≈ 493 µM) | O=C(CN1CCN(c2ccccc2)CC1)Nc1nc2ccccc2[nH]1 | 62.1% | 24.1% | 40.6% | 2.5 h | 1.33% | 4.62% | 0.5 h | 11% | 4% | 11.5% | 32.2% | Activity (Rattus norvegicus [19]): 5.65%; Activity (Rattus norvegicus [21]): 0.27%; Activity (Rattus norvegicus [22]): 2.55%; Activity (Rattus norvegicus [23]): 12.18%; Activity (Rattus norvegicus [24]): 13.5%; Activity (Rattus norvegicus [25]): 1.97%; Activity (Rattus norvegicus [26]): 7.75%; Activity (Rattus norvegicus [28]): 7.77%; Activity (Rattus norvegicus [29]): 45.73%
